Measurements published in US20090176711A1, “INHIBITORS OF AMYLOID PRECURSOR PROTEIN PROCESSING” (priority 2008, published 2009).
Entries after “also recorded” stand apart in the source; their conditions may differ. Non-standard residues stand in square brackets, D forms with d. No end group written: not given here. *: point of attachment. Biotin = O=C1N[C@H]2[C@H](CS[C@H]2CCCCC(=O)*)N1; Dnp = O=[N+]([O-])c1ccc(*)c([N+](=O)[O-])c1; Mca = COc1ccc2c(CC(=O)*)cc(=O)oc2c1; Ahx = NCCCCCC(=O)O

Key:
[1] = system: cleavage of Substrate M by β-secretase; assay: Inhibition of cleavage of Substrate M by β-secretase by complementary and deletion peptides (Examples 1, 5, 6; assay format not stated); type: biochemical; details: for inhibitory activity of deletion peptides on cleavage of Substrate M: 10 inhibitor/substrate ratio, Substrate M 50 μM; for concentration dependent inhibitory activity, activity group: various concentrations, Substrate M (FIG. 8); for inhibition of cleavage of Substrate M by β-secretase: FIG. 4
Procedure: So far we have focused on c-Sub M peptide. Serial deletions were made from N-terminus or C-terminus of c-Sub M (FIG. 5), and we investigated effect of the deletions on the cleavage of Substrate M. The optimum peptide/substrate ratio for inhibition on the cleavage of substrate was determined by observing the inhibition percentage at various peptide/substrate ratios (FIG. 4). Subsequently, the inhibitory activity of the deletion peptides were tested at 10 inhibitor/substrate ratio and the concentration of the Substrate M was 50 μM. Deletion of the first two amino acids from the N-terminus had little effect on the activity and deletion of five amino acids from the C-terminus of c-Sub M had little effect on the inhibitory activity (FIG. 6). Further deleted peptides were tested for inhibitory activity on the cleavage of Substrate M (FIG. 7).
The above-mentioned peptides that have inhibitory activity were tested at various concentrations for their inhibitory activities on their mutant substrate Substrate M (FIG. 8).

[2] = target: T1, Substrate W (Sub W, SEVKMDAEFR; β-secretase cleavage site of wild type APP) (Homo sapiens, UniProt P05067); assay: Binding of biotin-labeled Substrate W to immobilized complementary (HC) peptides; details: complementary peptide immobilized, biotin-labeled Substrate W
T1 construct: […]; purchased Peptron, Inc; host or cells: chemical synthesis
Procedure: (§1) Complementary peptides (0.2, 2, 20, and 200 μM) were dissolved in phosphate buffered saline (PBS) (pH 7.4) and fixed to microtiter wells for 5 hr at 37° C. The wells were blocked with blocking buffer (3% BSA/PBS) for 1 hr at 37° C. Either N-terminally biotinylated Substrate W or M (20 μM) in blocking buffer was added and incubated for overnight at 4° C. Streptavidin-horseradish peroxidase in blocking buffer was added to detect resulting bound substrates. The plate was incubated for 2 hr at room temperature (RT), followed by addition of 3,3′,5,5′-tetramethyl-benzidine (TMB) as substrate for horseradish peroxidase for color reaction.
In particular, for Substrate W, complementary peptides (200 μM) dissolved in phosphate buffered saline (PBS) (pH 7.4) were chemically coupled to Reacti-Bind Maleic Anhydride Activated Polystyrene wells (Pierce Biotechnology, Inc.) for overnight at room temperature (RT). Remaining active sites of the plate were inactivated by adding ethanolamine (1 M) for 1 hr at RT. The wells were blocked with blocking buffer (3% BSA/PBS) for 1 hr at RT. N-terminally biotinylated Substrate W (20 μM) in blocking buffer was added and incubated for 3 hr at RT. Streptavidin-horseradish peroxidase in blocking buffer was added to detect resulting bound substrates. The plate was incubated for 2 hr at room temperature (RT), followed by addition of 3,3′,5,5′-tetramethyl-benzidine (TMB) as substrate for horseradish peroxidase for color reaction.
(§2) Reacti-Bind™ maleic anhydride-activated polystyrene plate (Pierce, IL, USA) was coated with 50 μl of HC peptide (200 μM in distilled water) by chemical coupling for 3 h at room temperature (RT) and washed three times with phosphate buffered saline (PBS) containing 0.05% tween 20 (PBST). The plate was blocked with blocking buffer (0.5% gelatin in PBS) for 1 h at RT. After discarding blocking buffer, biotinylated BACE1 substrates (200 μM) in blocking buffer was applied on the plate and incubated for 2.5 h at RT. Each well was washed three times with PBST. The bound biotinylated BACE1 substrates were detected by incubation with streptavidin-horseradish peroxidase (Str-HRP, 125 mU/ml in blocking buffer) for 2 h at RT. Color reaction was carried out with 50 μl of 3,3′,5,5′-Tetramethylbenzidine Liquid Substrate (Sigma-Aldrich, MO, USA). After stopping the reaction by addition of an equal volume of 1 N HCl, absorbance at 450 nm was read in an automated ELISA reader (EL 312e, Bio-Tek Instruments, VT, USA). All assays were carried out in duplicate.

[3] = system: cleavage of F-Substrate M (f-Sub M) by rhBACE1; assay: Fluorometric (FRET) assay for cleavage of F-Substrate M by rhBACE; type: biochemical, human; details: for inhibitory activity for cleavage of f-Sub M by rhBACE1: f-Sub M 10 μM
Excerpt: This assay system utilizes fluorescence resonance energy transfer (FRET) technology. Substrate M was synthesized with two fluorophores, a fluorescent donor and a proprietary quenching acceptor (purchased from a commercial source, R&D Systems). […] Upon cleavage of substrate by β-secretase, the fluorophore is separated from the quenching group, restoring the full fluorescence yield of donor.
Substrate labeled with fluorophores will be called F-Substrate M (R&D Systems). Recombinant human β-secretase will be called rhBACE (recombinant human β-site APP cleavage enzyme) (purchased from R&D systems).
F-Substrate M (20 μM) was preincubated with varying concentrations of complementary peptides in assay buffer (0.1 M NaOAc, pH 4.0) for 1 hr at RT. rhBACE (70 nM) in assay buffer was added. Cleavage by rhBACE was detected by reading emitted fluorescence level.
In this assay system, fluorescence resonance energy transfer (FRET) technology was utilized. Swedish mutant APP substrate (f-Sub M) with a fluorescent donor and a proprietary quenching acceptor (7-methoxycoumarin-4-acetyl-SEVNLDAEFRK(Dnp)-RR-NH2) was purchased from R&D systems, Inc (MN, USA). […] Upon cleavage of substrate by rhBACE1 (R&D Systems, Inc., MN, USA), the fluorescence donor is separated from the quenching group, restoring the full fluorescence yield of the donor. f-Sub M (10 μM) was pre-incubated with HC peptide in assay buffer (0.1 M NaOAc, pH 4.0) for 2 h at RT. After pre-incubation, substrate and HC peptide mixture in assay buffer was transferred to FluoroNunc™ 96 well white plate (Nunc, Roskilde, Denmark), and rhBACE1 (70 nM) was added. Time-dependent emission of fluorescence (excitation at 320 nm, emission at 405 nm) was monitored in a Molecular Devices SpectraMax Gemini EM fluorescence reader (CA, USA) for 1 h at 37° C. All assays were carried out in duplicate.

[4] = system: Substrate M (Sub M, SEVNLDAEFR; β-secretase cleavage site of APPsw); assay: Binding of biotin-labeled Substrate M to immobilized complementary (HC) peptides; details: for binding activity for Sub M: HC peptides chemically coupled to plate, bio-Sub M
Procedure: as §1, §2

[5] = system: APP processing in HEK293-APP cells; assay: APP inhibitor activity on HEK293-APP cells (βCTF Western blot); type: cell-based, human; details: γ-secretase inhibitor and cholesterol added
Procedure: In the neuronal cells of the brain, APP is processed by α-secretase or β-secretase. To investigate the effects of the inhibitors on the cell, a cell based assay system was developed as described in FIG. 10. C-terminal fragment of APP remaining on the cell membrane was detected by Western blot. The resulting C-terminal fragments, αCTF or βCTF are further processed by γ-secretase. However, if the cells are treated with the γ-secretase inhibitor, this processing is blocked. As a result, αCTF or βCTF accumulate in the cell. If β-secretase inhibitor or APP inhibitor is added, this processing is blocked and βCTF disappears.
In addition, γ-secretase inhibitor and cholesterol were added to the cells to increase βCTF level. Commercially available peptide-based β-secretase inhibitor was included as control (Lane 6, FIG. 11). To detect the N-terminal fragment of β-amyloid which is a product of APP processing, 6E10 antibody was employed. […] Recently, it has been reported that the commercially available peptide-based inhibitor had to be linked to an oligoarginine transporter peptide to have inhibitory activity against cells. Therefore, mimetic approach is adopted to produce cell permeable analogs. (Chang et al. J. Neurochemistry 2004; 89:1409-1416).
After confirming the ability of the oligo-arginine coupled APP inhibitors to enter the cells, the inhibitors were applied to HEK293-APP cells overexpressing APP to test their inhibitory activities on APP processing. […] This inhibitor started to show significant inhibitory activity beginning from 0.1 μM (lower panel).

[6] = target: T2, f-Sub M (7-methoxycoumarin-4-acetyl-SEVNLDAEFRK(Dnp)-RR-NH2); assay: cell-based or functional assay
T2 peptide: Mca-SEVNLDAEFRK(Dnp)RR-NH2

Sub-ST6Ga11 = target: T3, Sub-ST6Ga11; assay: cell-based or functional assay
T3 peptide: DYEALTLQAKEFQMPKSQE

[7] = target: T4, Substrate M (non-labeled); assay: cell-based or functional assay
T4 peptide: SEVNLDAEFR

[8] = target: T5, N-terminally biotinylated Substrate W; assay: plate assay: HC peptide chemically coupled to wells, bio-Sub W, streptavidin-HRP (FIG. 27)
T5 construct: also called bio-Sub W; Sub W
T5 peptide: Biotin-SEVKMDAEFR
Procedure: as §2
Thereafter, it was investigated if the c-Sub M and the deletions series bind to wild type Sub W. The results will give us important information on possibility of inhibition of wild type of APP cleavage in cells by the HC peptides derived from Sub M in view of the poor cleavage of Sub W by rhBACE1 in vitro. […] Thus, there is possibility that the HC peptides for Sub M (c-Sub M series) or its peptidomimetics will inhibit the cleavage of wild type APP by BACE1 in cells.

## CIQI [C-Sub MΔN3C3]
[1]
  inhibitory activity of deletion peptides on cleavage of Substrate M: considerable inhibitory activity
  concentration dependent inhibitory activity, activity group: medium activity

## SEFCI (also: cyclic, mode of cyclisation not given here) [c-SubM ΔC5]
[1]
  concentration dependent inhibitory activity, activity group: medium activity

## RLHFYLRLKA [Sub W-c]
[2]
  binding to Substrate W: do not bind
[1]
  inhibition of cleavage of Substrate M by β-secretase: do not inhibit cleavage

## CIQIHF (also: cyclic, mode of cyclisation not given here) [c-Sub M ΔN3C1]
[3]; N-terminal deletions of c-Sub M ΔC1, HC peptide 0.5 mM
  inhibitory activity for cleavage of f-Sub M by rhBACE1: maintains much of the original activity of c-Sub M; also recorded: without sacrificing the inhibitory activity too much
[3]; substrate concentration 10 μM
  inhibitory activity relative to c-Sub M ΔN1C1: about one tenth
[1]
  inhibitory activity of deletion peptides on cleavage of Substrate M: considerable inhibitory activity
  concentration dependent inhibitory activity, activity group: less activity

## SEFCIQIHF [c-Sub M ΔC1]
[4]
  binding activity for Sub M: relatively high binding activity

## SEFC (also: cyclic, mode of cyclisation not given here) [c-Sub MΔC6]
[4]; substrate not specified
  absorbance in binding test: high absorbance
[5]
  inhibitory activity on APP processing (βCTF): none of the inhibitors tested showed inhibitory activity

## SEFCIHLHFR (also: cyclic, mode of cyclisation not given here) [c-Sub W]
[4]
  binding activity for Sub M: weak but significant binding
[2]
  binding to Substrate W: bind
[3]; HC peptide 1 mM
  inhibitory activity for cleavage of f-Sub M by rhBACE1: higher inhibitory activity
[1]
  inhibition of cleavage of Substrate M by β-secretase: inhibit cleavage
  concentration dependent inhibitory activity, activity group: medium activity

## SEFCIQI (also: cyclic, mode of cyclisation not given here) [c-SubM ΔC3]
[1]
  concentration dependent inhibitory activity, activity group: most active group

## RLHLDLRLKA [Sub M-c]
[4]; complementary peptide immobilized, biotin-labeled Substrate M
  binding to Substrate M: do not bind
[1]
  inhibition of cleavage of Substrate M by β-secretase: do not inhibit cleavage

## SEFCIQ-NH2 [c-Sub M ΔC4]
[6]
  inhibitory activity for the cleavage of f-Sub M by rhBACE1 (FRET; HC peptide 1 mM, f-Sub M 10 µM): > 90%

B1: c-Sub M ΔN1C1 (peptide)
peptide: EFCIQIHF-NH2
notes: also called one amino acid deletion from N-terminal of c-Sub M ΔC1
Sub-ST6Ga11
  inhibition of the cleavage of Sub-ST6Ga11 by rhBACE1 (HPLC), inhibitor/substrate ratio 20: 40%
  inhibition of the cleavage of Sub-ST6Ga11 by rhBACE1 (HPLC), up to 10 inhibitor/substrate ratio: ~10%
[7]
  inhibition of the cleavage of Sub M by rhBACE1 (HPLC), inhibitor/substrate ratio 20: 100%
  inhibition of the cleavage of Sub M by rhBACE1 (HPLC), up to 10 inhibitor/substrate ratio: 60%
[6]
  IC50 of inhibition of f-Sub M (10 µM) cleavage by rhBACE1 (FRET): 15 µM
[8]
  fold binding to Sub W relative to c-Sub W: 2.5 fold

## CIQIHF-NH2 (also called c-Sub M ΔC1N3; c-Sub ΔN3C1) [c-Sub M ΔN3C1]
[6]
  inhibitory activity relative to c-Sub M ΔN1C1, f-Sub M (10 µM) cleavage by rhBACE1 (FRET): ~0.1 fold of c-Sub M ΔN1C1
[8]
  binding result: binds

B2: 6-aminohexanoic acid-c-Sub M ΔN3C1 (peptide)
peptide: [Ahx]CIQIHF-NH2
modifications: N-terminus assumed
SMILES: CC[C@H](C)[C@H](NC(=O)[C@H](CCC(N)=O)NC(=O)[C@@H](NC(=O)[C@H](CS)NC(=O)CCCCCN)[C@@H](C)CC)C(=O)N[C@@H](Cc1c[nH]cn1)C(=O)N[C@@H](Cc1ccccc1)C(N)=O
[6]
  in vitro inhibitory activity on cleavage of f-Sub M by rhBACE1 relative to c-Sub M ΔN3C1 (FRET): ~0.5 fold of c-Sub M ΔN3C1

## SEFCI-NH2 [c-Sub M ΔC5]
[6]
  inhibitory activity for the cleavage of f-Sub M by rhBACE1 (FRET; HC peptide 1 mM, f-Sub M 10 µM): > 90%

## SEFCIQI-NH2 [c-Sub M ΔC3]
[6]
  inhibitory activity for the cleavage of f-Sub M by rhBACE1 (FRET; HC peptide 1 mM, f-Sub M 10 µM): > 90%

## SEFCIQIH-NH2 [c-Sub M ΔC2]
[6]
  inhibitory activity for the cleavage of f-Sub M by rhBACE1 (FRET; HC peptide 1 mM, f-Sub M 10 µM): 44%

## FCIQIHF-NH2 (also called FCIQIHF) [c-Sub M ΔN2C1]
Sub-ST6Ga11
  percent of ST6Ga11 peptide cleavage by β-secretase blocked (HPLC), 25-fold inhibitor: 25%
[7]
  percent of Sub M cleavage by β-secretase blocked (HPLC), 25-fold inhibitor: ~60%
[8]
  binding result: binds
